Key:
Type in all cases: in vivo
[1] = tested on: upland rice (Oryza sp., var. Tebonnet, RICE); test: Pre-emerge test, crop safety; conditions: for phytotoxicity rating RICE: 14 days after application, rating scale 0-100
Summary of the method: (§1)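 Compounds in acetone were track-sprayed at 187 l/ha, 15–1000 g ai/ha, onto sandy loam pots. Pre-emerge seeds were sown one day before spraying, with surface watering afterwards. Post-emerge plants were at the 2–3 leaf stage and sprayed with 0.25% v/v non-ionic surfactant. Injury was rated 0–100 at 14 days.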

[2] = tested on: field corn (Zea mays L., var. Dekalb 535, CORN); test: Pre-emerge test, crop safety; conditions: for phytotoxicity rating CORN: 14 days after application, rating scale 0-100
Summary of the method: as §1

[3] = tested on: redroot pigweed (Amaranthus retroflexus, AMARE); test: Pre-emerge test, greenhouse herbicide activity screening; conditions: for phytotoxicity rating AMARE: 14 days after application, rating scale 0-100
Summary of the method: as §1

[4] = tested on: velvetleaf (Abutilon theophrasti, ABUTH); test: as above; conditions: for phytotoxicity rating ABUTH: 14 days after application, rating scale 0-100
Summary of the method: (§2)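 Compounds in acetone were track-sprayed at 15–1000 g ai/ha: pre-emergence onto soil sown the previous day, then top-watered to incorporate and later bottom-watered; post-emergence onto 2–3 leaf plants with 0.25% v/v surfactant, bottom-watered only. Ratings on a 0–100 phytotoxicity scale were taken at day 14.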

[5] = tested on: barnyardgrass (Echinochloa crus-galli, ECHCG); test: as above; conditions: for phytotoxicity rating ECHCG: 14 days after application, rating scale 0-100
Summary of the method: as §2

[6] = tested on: johnsongrass (Sorghum halepense, SORHA); test: as above; conditions: for phytotoxicity rating SORHA: 14 days after application, rating scale 0-100
Summary of the method: as §2

[7] = tested on: large crabgrass (Digitaria sanguinalis, DIGSA); test: as above; conditions: for phytotoxicity rating DIGSA: 14 days after application, rating scale 0-100
Summary of the method: as §2

[8] = tested on: green foxtail (Setaria viridis, SETVI); test: as above; conditions: for phytotoxicity rating SETVI: 14 days after application, rating scale 0-100
Summary of the method: as §2

[9] = tested on: lambsquarters (Chenopodium album, CHEAL); test: as above; conditions: for phytotoxicity rating CHEAL: 14 days after application, rating scale 0-100
Summary of the method: as §2

[10] = tested on: ivyleaf morningglory (Ipomoea hederacea, IPOHE); test: as above; conditions: for phytotoxicity rating IPOHE: 14 days after application, rating scale 0-100
Summary of the method: as §2

[11] = tested on: sicklepod (Cassia obtusifolia, CASOB); test: as above; conditions: for phytotoxicity rating CASOB: 14 days after application, rating scale 0-100
Summary of the method: as §2

[12] = 63 g ai/ha, crop damage rating 0-100, 14 days after application
[13] = 250 g ai/ha, crop damage rating 0-100, 14 days after application
[14] = 63 g ai/ha, phytotoxicity rating 0-100, 14 days after application
[15] = 250 g ai/ha, phytotoxicity rating 0-100, 14 days after application
[16] = crop damage, pre-emerge, rate 63 g ai/ha, phytotoxicity rating 0-100 at 14 days after application
[17] = crop damage, pre-emerge, rate 250 g ai/ha, phytotoxicity rating 0-100 at 14 days after application
[18] = pre-emerge, rate 63 g ai/ha, phytotoxicity rating 0-100 at 14 days after application
[19] = pre-emerge, rate 250 g ai/ha, phytotoxicity rating 0-100 at 14 days after application

Structure (SMILES): Cn1c(C(F)(F)F)cc(=O)n(-c2ccc(Cl)cc2C(=O)c2ccccc2)c1=O [14-57]
- phytotoxicity rating RICE ([1]; pre-emerge, 63 g ai/ha): 0
- phytotoxicity rating RICE ([1]; pre-emerge, 250 g ai/ha): 0
- phytotoxicity rating CORN ([2]; pre-emerge, 63 g ai/ha): 0
- phytotoxicity rating CORN ([2]; pre-emerge, 250 g ai/ha): 0
- phytotoxicity rating AMARE ([3]; pre-emerge, 63 g ai/ha): 0
- phytotoxicity rating AMARE ([3]; pre-emerge, 250 g ai/ha): 0
- phytotoxicity rating ABUTH ([4]; pre-emerge, 63 g ai/ha): 0
- phytotoxicity rating ABUTH ([4]; pre-emerge, 250 g ai/ha): 0
- phytotoxicity rating ECHCG ([5]; pre-emerge, 63 g ai/ha): 0
- phytotoxicity rating ECHCG ([5]; pre-emerge, 250 g ai/ha): 0
- phytotoxicity rating SORHA ([6]; pre-emerge, 63 g ai/ha): 0
- phytotoxicity rating SORHA ([6]; pre-emerge, 250 g ai/ha): 0
- phytotoxicity rating DIGSA ([7]; pre-emerge, 63 g ai/ha): 0
- phytotoxicity rating DIGSA ([7]; pre-emerge, 250 g ai/ha): 20
- phytotoxicity rating SETVI ([8]; pre-emerge, 63 g ai/ha): 0
- phytotoxicity rating SETVI ([8]; pre-emerge, 250 g ai/ha): 0
- phytotoxicity rating CHEAL ([9]; pre-emerge, 63 g ai/ha): 0
- phytotoxicity rating CHEAL ([9]; pre-emerge, 250 g ai/ha): 0
- phytotoxicity rating IPOHE ([10]; pre-emerge, 63 g ai/ha): 0
- phytotoxicity rating IPOHE ([10]; pre-emerge, 250 g ai/ha): 0
- phytotoxicity rating CASOB ([11]; pre-emerge, 63 g ai/ha): 0
- phytotoxicity rating CASOB ([11]; pre-emerge, 250 g ai/ha): 0

Structure (SMILES): COc1c(Cl)cc(F)c(-n2c(=O)cc(C(F)(F)F)n(C)c2=O)c1NC(=O)N(Cc1ccccc1)c1ccccc1 [Compound 3-23]
- Pre-emerge Herbicidal Activity RICE [1, 12]: 0
- Pre-emerge Herbicidal Activity RICE [1, 13]: 0
- Pre-emerge Herbicidal Activity CORN [2, 12]: 0
- Pre-emerge Herbicidal Activity CORN [2, 13]: 0
- Pre-emerge Herbicidal Activity AMARE [3, 14]: 0
- Pre-emerge Herbicidal Activity AMARE [3, 15]: 0
- Pre-emerge Herbicidal Activity ABUTH [4, 14]: 0
- Pre-emerge Herbicidal Activity ABUTH [4, 15]: 40
- Pre-emerge Herbicidal Activity ECHCG [5, 14]: 0
- Pre-emerge Herbicidal Activity ECHCG [5, 15]: 0
- Pre-emerge Herbicidal Activity SORHA [6, 14]: 0
- Pre-emerge Herbicidal Activity SORHA [6, 15]: 0
- Pre-emerge Herbicidal Activity DIGSA [7, 14]: 0
- Pre-emerge Herbicidal Activity DIGSA [7, 15]: 0
- Pre-emerge Herbicidal Activity SETVI [8, 14]: 0
- Pre-emerge Herbicidal Activity SETVI [8, 15]: 0
- Pre-emerge Herbicidal Activity CHEAL [9, 14]: 0
- Pre-emerge Herbicidal Activity CHEAL [9, 15]: 70
- Pre-emerge Herbicidal Activity IPOHE [10, 14]: 0
- Pre-emerge Herbicidal Activity IPOHE [10, 15]: 0
- Pre-emerge Herbicidal Activity CASOB [11, 14]: 0
- Pre-emerge Herbicidal Activity CASOB [11, 15]: 0

Structure (SMILES): COc1c(Cl)cc(F)c(-n2nnn(CCCF)c2=O)c1N [Compound 5-3]
- Pre-emerge Herbicidal Activity RICE [1, 16]: 20
- Pre-emerge Herbicidal Activity RICE [1, 17]: 20
- Pre-emerge Herbicidal Activity CORN [2, 16]: 0
- Pre-emerge Herbicidal Activity CORN [2, 17]: 0
- Pre-emerge Herbicidal Activity AMARE [3, 18]: 60
- Pre-emerge Herbicidal Activity AMARE [3, 19]: 100
- Pre-emerge Herbicidal Activity ABUTH [4, 18]: 100
- Pre-emerge Herbicidal Activity ABUTH [4, 19]: 100
- Pre-emerge Herbicidal Activity ECHCG [5, 18]: 0
- Pre-emerge Herbicidal Activity ECHCG [5, 19]: 20
- Pre-emerge Herbicidal Activity SORHA [6, 18]: 0
- Pre-emerge Herbicidal Activity SORHA [6, 19]: 95
- Pre-emerge Herbicidal Activity DIGSA [7, 18]: 30
- Pre-emerge Herbicidal Activity DIGSA [7, 19]: 100
- Pre-emerge Herbicidal Activity SETVI [8, 18]: 70
- Pre-emerge Herbicidal Activity SETVI [8, 19]: 100
- Pre-emerge Herbicidal Activity CHEAL [9, 18]: 100
- Pre-emerge Herbicidal Activity CHEAL [9, 19]: 100
- Pre-emerge Herbicidal Activity IPOHE [10, 18]: 0
- Pre-emerge Herbicidal Activity IPOHE [10, 19]: 10
- Pre-emerge Herbicidal Activity CASOB [11, 18]: 0
- Pre-emerge Herbicidal Activity CASOB [11, 19]: 30

Structure (SMILES): C#CCOc1c(Cl)cc(Cl)c(-n2nnn(CCCF)c2=O)c1N [Compound 5-15]
- Pre-emerge Herbicidal Activity RICE [1, 16]: 0
- Pre-emerge Herbicidal Activity RICE [1, 17]: 0
- Pre-emerge Herbicidal Activity CORN [2, 16]: 0
- Pre-emerge Herbicidal Activity CORN [2, 17]: 0
- Pre-emerge Herbicidal Activity AMARE [3, 18]: 0
- Pre-emerge Herbicidal Activity AMARE [3, 19]: 0
- Pre-emerge Herbicidal Activity ABUTH [4, 18]: 0
- Pre-emerge Herbicidal Activity ABUTH [4, 19]: 0
- Pre-emerge Herbicidal Activity ECHCG [5, 18]: 0
- Pre-emerge Herbicidal Activity ECHCG [5, 19]: 0
- Pre-emerge Herbicidal Activity SORHA [6, 18]: 0
- Pre-emerge Herbicidal Activity SORHA [6, 19]: 0
- Pre-emerge Herbicidal Activity DIGSA [7, 18]: 0
- Pre-emerge Herbicidal Activity DIGSA [7, 19]: 0
- Pre-emerge Herbicidal Activity SETVI [8, 18]: 0
- Pre-emerge Herbicidal Activity SETVI [8, 19]: 0
- Pre-emerge Herbicidal Activity CHEAL [9, 18]: 0
- Pre-emerge Herbicidal Activity CHEAL [9, 19]: 0
- Pre-emerge Herbicidal Activity IPOHE [10, 18]: 0
- Pre-emerge Herbicidal Activity IPOHE [10, 19]: 0
- Pre-emerge Herbicidal Activity CASOB [11, 18]: 0
- Pre-emerge Herbicidal Activity CASOB [11, 19]: 0

Structure (SMILES): CC(C)Oc1c(Cl)cc(Cl)c(-n2nnn(CCCF)c2=O)c1N [Compound 5-16]
- Pre-emerge Herbicidal Activity RICE [1, 16]: 0
- Pre-emerge Herbicidal Activity RICE [1, 17]: 0
- Pre-emerge Herbicidal Activity CORN [2, 16]: 0
- Pre-emerge Herbicidal Activity CORN [2, 17]: 0
- Pre-emerge Herbicidal Activity AMARE [3, 18]: 0
- Pre-emerge Herbicidal Activity AMARE [3, 19]: 0
- Pre-emerge Herbicidal Activity ABUTH [4, 18]: 0
- Pre-emerge Herbicidal Activity ABUTH [4, 19]: 0
- Pre-emerge Herbicidal Activity ECHCG [5, 18]: 0
- Pre-emerge Herbicidal Activity ECHCG [5, 19]: 0
- Pre-emerge Herbicidal Activity SORHA [6, 18]: 0
- Pre-emerge Herbicidal Activity SORHA [6, 19]: 0
- Pre-emerge Herbicidal Activity DIGSA [7, 18]: 0
- Pre-emerge Herbicidal Activity DIGSA [7, 19]: 0
- Pre-emerge Herbicidal Activity SETVI [8, 18]: 0
- Pre-emerge Herbicidal Activity SETVI [8, 19]: 0
- Pre-emerge Herbicidal Activity CHEAL [9, 18]: 0
- Pre-emerge Herbicidal Activity CHEAL [9, 19]: 20
- Pre-emerge Herbicidal Activity IPOHE [10, 18]: 0
- Pre-emerge Herbicidal Activity IPOHE [10, 19]: 0
- Pre-emerge Herbicidal Activity CASOB [11, 18]: 0
- Pre-emerge Herbicidal Activity CASOB [11, 19]: 0

Source: US6355799B1, “Substituted benzene compounds, process for their preparation, and herbicidal and defoliant compositions containing them” (ISK Americas Incorporated, priority 1997, dated 2002)
